Assay results taken from the kinase profiling compilation of Christmann-Franck et al. (2016).

Experiments:
Test in all cases: KINOMEscan competition binding
Conditions in all cases: compound 10.0 µM
[1] = biological target: TNK2 (human) (UniProt Q07912)
[2] = biological target: PTK2 (human) (UniProt Q05397)
[3] = biological target: CDK9 (human) (UniProt P50750)
[4] = biological target: DAPK1 (human) (UniProt P53355)
[5] = biological target: PRPF4B (human) (UniProt Q13523)
[6] = biological target: STK24 (human) (UniProt Q9Y6E0)
[7] = biological target: NEK5 (human) (UniProt Q6P3R8)
[8] = biological target: MAP3K7 (human) (UniProt O43318)
[9] = biological target: CDK16 (human) (UniProt Q00536)
[10] = biological target: SRPK2 (human) (UniProt P78362)
[11] = system: EGFR (human), P00533 [A750P; 747-749 del]
[12] = biological target: FRK (human) (UniProt P42685)
[13] = biological target: PIK3CB (human) (UniProt P42338)
[14] = biological target: PAK3 (human) (UniProt O75914)
[15] = biological target: TNNI3K (human) (UniProt Q59H18)
[16] = biological target: SIK2 (human) (UniProt Q9H0K1)
[17] = biological target: RPS6KA6 KD1 (human) (UniProt Q9UK32)
[18] = biological target: TSSK1B (human) (UniProt Q9BXA7)
[19] = biological target: PRKD1 (human) (UniProt Q15139)
[20] = biological target: MAP3K13 (human) (UniProt O43283)
[21] = biological target: MTOR (human) (UniProt P42345)
[22] = biological target: CaMK1 (human) (UniProt Q14012)
[23] = biological target: MAPK6 (human) (UniProt Q16659)
[24] = biological target: PRKCE (human) (UniProt Q02156)
[25] = biological target: PAK6 (human) (UniProt Q9NQU5)
[26] = biological target: EPHA7 (human) (UniProt Q15375)
[27] = biological target: MAPK12 (human) (UniProt P53778)
[28] = biological target: SGK110 (human) (UniProt P0C264)
[29] = biological target: CSNK2A1 (human) (UniProt P68400)
[30] = biological target: PIK3C2B (human) (UniProt O00750)
[31] = biological target: RIPK4 (human) (UniProt P57078)
[32] = biological target: FLT4 (human) (UniProt P35916)
[33] = biological target: TIE1 (human) (UniProt P35590)
[34] = biological target: RPS6KA5 KD1 (human) (UniProt O75582)
[35] = biological target: CHUK (human) (UniProt O15111)
[36] = biological target: AURKB (human) (UniProt Q96GD4)
[37] = biological target: IRAK4 (human) (UniProt Q9NWZ3)
[38] = biological target: STK32C (human) (UniProt Q86UX6)
[39] = biological target: MAP3K9 (human) (UniProt P80192)
[40] = biological target: ICK (human) (UniProt Q9UPZ9)

Chain of PRKD1 (human) (Q15139 whole entry, looked up): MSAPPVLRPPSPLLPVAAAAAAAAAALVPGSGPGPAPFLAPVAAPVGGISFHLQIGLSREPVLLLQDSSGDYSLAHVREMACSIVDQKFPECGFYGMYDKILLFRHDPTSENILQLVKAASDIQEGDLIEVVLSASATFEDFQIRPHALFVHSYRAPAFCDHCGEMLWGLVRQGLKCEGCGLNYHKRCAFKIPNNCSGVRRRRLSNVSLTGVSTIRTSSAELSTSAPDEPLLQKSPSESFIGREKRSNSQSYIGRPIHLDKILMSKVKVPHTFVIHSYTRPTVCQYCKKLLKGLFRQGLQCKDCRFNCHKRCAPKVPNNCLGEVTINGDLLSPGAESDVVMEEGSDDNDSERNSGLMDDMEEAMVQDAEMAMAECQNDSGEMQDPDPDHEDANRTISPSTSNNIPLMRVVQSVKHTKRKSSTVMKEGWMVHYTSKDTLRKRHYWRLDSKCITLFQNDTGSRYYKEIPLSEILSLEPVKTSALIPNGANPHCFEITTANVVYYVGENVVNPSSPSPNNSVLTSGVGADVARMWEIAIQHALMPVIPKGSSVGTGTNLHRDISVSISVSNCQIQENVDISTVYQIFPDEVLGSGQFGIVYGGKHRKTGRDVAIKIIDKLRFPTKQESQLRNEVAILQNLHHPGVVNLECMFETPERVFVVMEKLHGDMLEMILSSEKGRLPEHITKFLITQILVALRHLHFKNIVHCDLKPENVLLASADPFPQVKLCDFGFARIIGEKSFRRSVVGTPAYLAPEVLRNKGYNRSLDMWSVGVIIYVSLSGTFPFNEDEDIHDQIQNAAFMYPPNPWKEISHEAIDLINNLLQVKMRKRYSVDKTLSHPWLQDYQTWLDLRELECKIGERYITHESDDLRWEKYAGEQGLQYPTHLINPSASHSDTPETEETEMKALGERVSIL
Chain of FLT4 (human) (P35916 whole entry, looked up): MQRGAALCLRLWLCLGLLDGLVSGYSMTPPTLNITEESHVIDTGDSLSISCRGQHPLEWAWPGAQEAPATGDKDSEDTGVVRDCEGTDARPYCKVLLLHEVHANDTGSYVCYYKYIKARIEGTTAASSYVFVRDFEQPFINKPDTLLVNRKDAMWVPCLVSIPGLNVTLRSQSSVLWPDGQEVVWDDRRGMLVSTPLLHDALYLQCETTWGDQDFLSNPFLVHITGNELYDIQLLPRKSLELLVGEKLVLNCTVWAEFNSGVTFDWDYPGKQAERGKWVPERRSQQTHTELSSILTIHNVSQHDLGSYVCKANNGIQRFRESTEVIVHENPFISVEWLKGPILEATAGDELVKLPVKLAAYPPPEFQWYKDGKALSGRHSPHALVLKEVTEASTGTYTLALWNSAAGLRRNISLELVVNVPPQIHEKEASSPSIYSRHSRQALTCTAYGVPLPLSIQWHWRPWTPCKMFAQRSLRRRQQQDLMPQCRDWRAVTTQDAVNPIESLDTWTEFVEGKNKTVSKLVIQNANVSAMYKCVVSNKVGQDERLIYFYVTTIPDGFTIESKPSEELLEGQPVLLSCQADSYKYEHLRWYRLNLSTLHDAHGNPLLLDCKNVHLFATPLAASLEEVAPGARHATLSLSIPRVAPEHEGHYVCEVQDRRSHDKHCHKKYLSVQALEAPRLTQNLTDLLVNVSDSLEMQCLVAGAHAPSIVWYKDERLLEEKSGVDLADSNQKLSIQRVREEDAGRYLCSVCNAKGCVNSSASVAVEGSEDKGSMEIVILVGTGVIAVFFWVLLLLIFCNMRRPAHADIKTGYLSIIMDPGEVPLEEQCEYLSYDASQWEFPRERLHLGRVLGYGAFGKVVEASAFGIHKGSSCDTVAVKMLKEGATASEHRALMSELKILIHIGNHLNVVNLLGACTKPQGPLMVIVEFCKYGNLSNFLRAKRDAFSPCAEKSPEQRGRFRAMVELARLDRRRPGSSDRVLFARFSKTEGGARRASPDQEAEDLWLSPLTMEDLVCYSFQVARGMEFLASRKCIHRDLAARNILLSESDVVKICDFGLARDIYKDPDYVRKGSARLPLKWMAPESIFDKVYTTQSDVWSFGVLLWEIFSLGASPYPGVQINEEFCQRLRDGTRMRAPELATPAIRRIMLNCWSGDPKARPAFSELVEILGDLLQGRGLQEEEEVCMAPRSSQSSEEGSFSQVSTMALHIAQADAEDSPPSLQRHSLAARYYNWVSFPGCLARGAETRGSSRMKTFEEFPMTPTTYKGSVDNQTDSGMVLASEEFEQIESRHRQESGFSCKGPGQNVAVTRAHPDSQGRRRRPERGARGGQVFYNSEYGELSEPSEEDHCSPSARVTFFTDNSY
Chain of MAP3K13 (human) (O43283 whole entry, looked up): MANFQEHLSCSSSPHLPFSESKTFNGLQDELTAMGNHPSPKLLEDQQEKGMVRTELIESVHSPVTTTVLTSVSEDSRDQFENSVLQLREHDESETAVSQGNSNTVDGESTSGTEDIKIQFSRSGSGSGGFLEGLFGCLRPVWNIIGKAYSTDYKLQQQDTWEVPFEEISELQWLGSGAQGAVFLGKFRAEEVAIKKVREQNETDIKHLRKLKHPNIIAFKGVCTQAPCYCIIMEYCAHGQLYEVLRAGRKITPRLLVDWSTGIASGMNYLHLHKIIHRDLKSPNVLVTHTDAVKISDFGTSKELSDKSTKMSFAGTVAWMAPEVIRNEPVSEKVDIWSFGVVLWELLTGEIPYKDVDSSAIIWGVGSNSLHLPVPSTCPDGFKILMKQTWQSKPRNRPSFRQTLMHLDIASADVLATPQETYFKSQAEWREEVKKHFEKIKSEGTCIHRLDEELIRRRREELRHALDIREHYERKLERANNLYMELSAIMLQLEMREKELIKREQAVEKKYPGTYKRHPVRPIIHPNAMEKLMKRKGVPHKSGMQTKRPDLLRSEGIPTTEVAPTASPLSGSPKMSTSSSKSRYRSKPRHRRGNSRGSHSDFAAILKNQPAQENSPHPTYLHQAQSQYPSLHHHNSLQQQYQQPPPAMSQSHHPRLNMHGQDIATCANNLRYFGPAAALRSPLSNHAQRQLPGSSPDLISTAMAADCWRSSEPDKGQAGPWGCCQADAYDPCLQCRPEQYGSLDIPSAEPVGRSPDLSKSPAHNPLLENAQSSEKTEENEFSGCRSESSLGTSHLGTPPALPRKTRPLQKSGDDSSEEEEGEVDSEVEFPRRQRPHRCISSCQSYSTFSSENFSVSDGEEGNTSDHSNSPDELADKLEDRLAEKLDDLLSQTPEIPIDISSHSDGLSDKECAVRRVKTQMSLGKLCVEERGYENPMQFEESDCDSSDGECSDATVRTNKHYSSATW
Chain of MAP3K7 (human) (O43318 whole entry, looked up): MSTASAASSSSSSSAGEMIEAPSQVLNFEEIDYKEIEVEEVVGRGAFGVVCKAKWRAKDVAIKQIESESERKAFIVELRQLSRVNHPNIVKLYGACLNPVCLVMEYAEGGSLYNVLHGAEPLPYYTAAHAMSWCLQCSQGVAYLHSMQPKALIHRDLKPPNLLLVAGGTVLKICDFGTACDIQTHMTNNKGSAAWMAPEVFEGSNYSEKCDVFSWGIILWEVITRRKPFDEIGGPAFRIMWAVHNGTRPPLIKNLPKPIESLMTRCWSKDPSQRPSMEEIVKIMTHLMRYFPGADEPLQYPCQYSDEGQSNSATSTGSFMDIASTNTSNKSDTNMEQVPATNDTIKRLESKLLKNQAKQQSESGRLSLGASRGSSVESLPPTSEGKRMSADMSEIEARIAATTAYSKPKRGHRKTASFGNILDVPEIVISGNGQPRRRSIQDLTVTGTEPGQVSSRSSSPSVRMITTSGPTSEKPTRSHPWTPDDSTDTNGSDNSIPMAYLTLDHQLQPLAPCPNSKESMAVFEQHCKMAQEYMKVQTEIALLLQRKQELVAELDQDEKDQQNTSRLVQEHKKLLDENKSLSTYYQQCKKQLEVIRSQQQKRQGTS
Chain of PRPF4B (human) (Q13523 whole entry, looked up): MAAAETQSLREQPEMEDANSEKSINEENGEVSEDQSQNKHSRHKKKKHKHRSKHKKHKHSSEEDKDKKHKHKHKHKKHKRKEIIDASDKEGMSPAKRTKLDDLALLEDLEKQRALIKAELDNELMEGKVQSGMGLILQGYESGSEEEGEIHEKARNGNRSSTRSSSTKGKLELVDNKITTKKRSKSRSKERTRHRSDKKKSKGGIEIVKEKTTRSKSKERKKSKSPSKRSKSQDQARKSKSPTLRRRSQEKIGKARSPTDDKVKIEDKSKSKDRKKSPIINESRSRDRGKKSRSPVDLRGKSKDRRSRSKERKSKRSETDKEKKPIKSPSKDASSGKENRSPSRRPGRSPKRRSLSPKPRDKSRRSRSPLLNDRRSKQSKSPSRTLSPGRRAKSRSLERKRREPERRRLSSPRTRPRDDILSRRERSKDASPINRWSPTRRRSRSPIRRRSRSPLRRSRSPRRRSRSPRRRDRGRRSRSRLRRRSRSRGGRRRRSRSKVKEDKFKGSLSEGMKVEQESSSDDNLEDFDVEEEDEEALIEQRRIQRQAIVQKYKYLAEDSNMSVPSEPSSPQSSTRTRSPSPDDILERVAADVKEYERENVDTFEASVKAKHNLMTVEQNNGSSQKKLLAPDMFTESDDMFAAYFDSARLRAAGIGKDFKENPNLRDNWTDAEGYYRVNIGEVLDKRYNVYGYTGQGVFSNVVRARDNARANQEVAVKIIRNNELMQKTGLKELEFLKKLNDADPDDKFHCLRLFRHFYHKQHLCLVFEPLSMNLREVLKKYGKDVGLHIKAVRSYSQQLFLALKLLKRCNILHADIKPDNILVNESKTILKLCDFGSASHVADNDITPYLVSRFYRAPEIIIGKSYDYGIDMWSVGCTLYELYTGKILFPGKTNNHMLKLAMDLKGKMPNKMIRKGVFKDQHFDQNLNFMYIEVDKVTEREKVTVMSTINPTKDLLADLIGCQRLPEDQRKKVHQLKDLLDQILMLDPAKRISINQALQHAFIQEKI

Compound | kinase still bound, per cent of control [1] [%] | kinase still bound, per cent of control [2] [%] | kinase still bound, per cent of control [3] [%] | kinase still bound, per cent of control [4] [%] | kinase still bound, per cent of control [5] [%] | kinase still bound, per cent of control [6] [%] | kinase still bound, per cent of control [7] [%] | kinase still bound, per cent of control [8] [%] | kinase still bound, per cent of control [9] [%] | kinase still bound, per cent of control [10] [%] | kinase still bound, per cent of control [11] [%] | kinase still bound, per cent of control [12] [%] | kinase still bound, per cent of control [13] [%] | kinase still bound, per cent of control [14] [%] | kinase still bound, per cent of control [15] [%] | kinase still bound, per cent of control [16] [%] | kinase still bound, per cent of control [17] [%] | kinase still bound, per cent of control [18] [%] | kinase still bound, per cent of control [19] [%] | kinase still bound, per cent of control [20] [%] | other results
CC1=C(C(=O)Nc2cc3cn[nH]c3cc2F)C(c2ccc(C(F)(F)F)cc2)CC(=O)N1 (stereo not given) | 88 | 79 | 96 | 81 | 86 | 52 | 90 | 78 | 100 | 100 | 36 | 53 | 86 | 36 | 78 | 99 | 42 | 98 | 76 | 83 | kinase still bound, per cent of control [21]: 89%; kinase still bound, per cent of control [22]: 93%; kinase still bound, per cent of control [23]: 98%; kinase still bound, per cent of control [24]: 100%; kinase still bound, per cent of control [25]: 90%; kinase still bound, per cent of control [26]: 80%; kinase still bound, per cent of control [27]: 79%; kinase still bound, per cent of control [28]: 59%; kinase still bound, per cent of control [29]: 81%; kinase still bound, per cent of control [30]: 100%; kinase still bound, per cent of control [31]: 98%; kinase still bound, per cent of control [32]: 94%; kinase still bound, per cent of control [33]: 75%; kinase still bound, per cent of control [34]: 88%; kinase still bound, per cent of control [35]: 100%; kinase still bound, per cent of control [36]: 42%; kinase still bound, per cent of control [37]: 97%; kinase still bound, per cent of control [38]: 48%; kinase still bound, per cent of control [39]: 93%; kinase still bound, per cent of control [40]: 79%
CCN1CCN(Cc2ccc(NC(=O)c3ccc(C)c(/C=C/c4cnc5[nH]ccc5c4OC)c3)cc2C(F)(F)F)CC1 | 0.8 | 67 | 96 | 100 | 12 | 20 | 4.3 | 4.8 | 98 | 28 | 1.1 | 0.6 | 100 | 6 | 1 | 30 | 42 | 100 | 3.5 | 20 | kinase still bound, per cent of control [21]: 100%; kinase still bound, per cent of control [22]: 30%; kinase still bound, per cent of control [23]: 100%; kinase still bound, per cent of control [24]: 75%; kinase still bound, per cent of control [25]: 54%; kinase still bound, per cent of control [26]: 16%; kinase still bound, per cent of control [27]: 40%; kinase still bound, per cent of control [28]: 41%; kinase still bound, per cent of control [29]: 90%; kinase still bound, per cent of control [30]: 100%; kinase still bound, per cent of control [31]: 56%; kinase still bound, per cent of control [32]: 0.2%; kinase still bound, per cent of control [33]: 4.6%; kinase still bound, per cent of control [34]: 34%; kinase still bound, per cent of control [35]: 0%; kinase still bound, per cent of control [36]: 16%; kinase still bound, per cent of control [37]: 48%; kinase still bound, per cent of control [38]: 100%; kinase still bound, per cent of control [39]: 1.4%; kinase still bound, per cent of control [40]: 99%
